Data as given in the supplement of paper PMC11061612.

Columns and labels:
[1] = compound: CC(=O)c1c(C)c2cnc(Nc3ccc(N4CCNCC4)cn3)nc2n(C2CCCC2)c1=O [Palbociclib]; settings: max 10 µM
Outline: (§1)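 Following 24 hours at 37°C and 5% CO2, cancer cell lines in 1536-well plates with 7.5 μl DMEM/F12 or RPMI and 10% FBS were dosed for 72 hours, final DMSO typically being 0.2%. CellTiter-Glo 2.0 luminescence, scaled between blank-well and DMSO-well means, gave the viability readout. Dose responses were fitted to a two-parameter logistic curve with a non-linear mixed effects model, and the single-agent IC50 was derived from this fit.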

[2] = compound: CC(C)n1c(=O)n(C)c2cnc3cc(F)c(-c4ccc(OCCCN5CCCCC5)nc4)cc3c21 [AZD1390]; settings: max 0.3 µM
Outline: as §1

[3] = compound: C1CC(C1)(C(=O)[O-])C(=O)[O-].N.N.[Pt+2] [Carboplatin]; settings: max 10 µM
Outline: as §1

[4] = compound: C[C@@H](Nc1cc(F)cc(F)c1)c1cc(C(=O)N(C)C)cc2c(=O)cc(N3CCOCC3)oc12 [AZD8186]; settings: max 10 µM
Outline: as §1

[5] = compound: Cc1cc2ncnn2cc1Nc1ncc2c(n1)n(C1CCOCC1)c(=O)n2C [AZD7648]; settings: max 10 µM
Outline: as §1

[6] = compound: COc1cc(Nc2ncc3c(n2)-c2ccc(Cl)cc2C(c2c(F)cccc2OC)=NC3)ccc1C(=O)O [Alisertib]; settings: max 10 µM
Outline: as §1

[7] = compound: CC1(C)CCC(CN2CCN(c3ccc(C(=O)NS(=O)(=O)c4ccc(NCC5CCOCC5)c([N+](=O)[O-])c4)c(Oc4cnc5[nH]ccc5c4)c3)CC2)=C(c2ccc(Cl)cc2)C1 [Venetoclax]; settings: max 1 µM
Outline: as §1

[8] = compound: CC1=C(C(=CC=C1)Cl)NC(=O)C2=CN=C(S2)NC3=CC(=NC(=N3)C)N4CCN(CC4)CCO [Dasatinib]; settings: max 2 µM
Outline: as §1

[9] = compound: C=CCn1c(=O)c2cnc(Nc3ccc(N4CCN(C)CC4)cc3)nc2n1-c1cccc(C(C)(C)O)n1 [AZD1775]; settings: max 3 µM
Outline: as §1

[10] = compound: C[C@@H](Oc1cc(-c2cnn(C3CCNCC3)c2)cnc1N)c1c(Cl)ccc(F)c1Cl [Crizotinib]; settings: max 10 µM
Outline: as §1

[11] = compound: O=c1[nH]cc(F)c(=O)[nH]1 [5-Fluorouracil]; settings: max 20 µM
Outline: as §1

[12] = compound: CC(=O)Nc1cccc(-n2c(=O)n(C3CC3)c(=O)c3c(Nc4ccc(I)cc4F)n(C)c(=O)c(C)c32)c1 [Trametinib]; settings: max 1 µM
Outline: as §1

[13] = compound: CN(C)CCCOc1ccc(-c2ccc3ncc4c(c3c2)n(C2CCOCC2)c(=O)n4C)cn1 [AZD0156]; settings: max 3 µM
Outline: as §1

[14] = compound: CCc1c2c(nc3ccc(O)cc13)-c1cc3c(c(=O)n1C2)COC(=O)[C@]3(O)CC [SN-38]; settings: max 0.3 µM
Outline: as §1

[15] = compound: NC1(c2ccc(-c3nc4ccn5c(=O)[nH]nc5c4cc3-c3ccccc3)cc2)CCC1 [MK-2206]; settings: max 10 µM
Outline: as §1

[16] = compound: CCN(CCO)CCCOc1ccc2c(Nc3cc(CC(=O)Nc4cccc(F)c4)[nH]n3)ncnc2c1 [AZD2811]; settings: max 1 µM
Outline: as §1

[17] = compound: C[C@@H](c1ccc2nccn2c1)n1nnc2ncc(-c3cnn(C)c3)nc21 [Savolitinib]; settings: max 1 µM
Outline: as §1

[18] = compound: Cc1c2c(nn1C)CSCc1cc(n(C)n1)CSc1cc(c3ccccc3c1)OCCCc1c(C(=O)O)n(C)c3c-2c(Cl)ccc13 [AZD5991]; settings: max 1 µM
Outline: as §1

[19] = compound: O=C(Nc1ccc2[nH]nc(-c3ccncc3)c2c1)[C@@H]1CCN(CC(=O)N2CCN(c3ccc(-c4ncccn4)cc3)CC2)C1; settings: max 5 µM
Outline: as §1

[20] = compound: COc1cc2ncnc(Nc3ccc(F)c(Cl)c3)c2cc1OCCCN1CCOCC1 [Gefitinib]; settings: max 10 µM
Outline: as §1

[21] = compound: COc1cccc(OCCCN)c1-c1cc(Nc2cnc(C#N)cn2)n[nH]1 [Prexasertib]; settings: max 1 µM
Outline: as §1

[22] = compound: COc1cc([C@@H]2c3cc4c(cc3[C@@H](O[C@@H]3O[C@@H]5CO[C@@H](C)O[C@H]5[C@H](O)[C@H]3O)[C@H]3COC(=O)[C@H]23)OCO4)cc(OC)c1O [Etoposide]; settings: max 10 µM
Outline: as §1

[23] = compound: CC(=O)O[C@H]1C(=O)[C@@]2(C)[C@H]([C@H](OC(=O)c3ccccc3)[C@]3(O)C[C@H](OC(=O)[C@H](O)[C@@H](NC(=O)c4ccccc4)c4ccccc4)C(C)=C1C3(C)C)[C@]1(OC(C)=O)CO[C@@H]1C[C@@H]2O [Paclitaxel]; settings: max 3 µM
Outline: as §1

[24] = compound: COc1nnc2ccc(N3CCC(c4ccc(OCCN5CCN(C)C(=O)[C@H]5C)cc4)CC3)nn12 [AZD5153]; settings: max 1 µM
Outline: as §1

[25] = compound: O=C(c1cc(Cc2n[nH]c(=O)c3ccccc23)ccc1F)N1CCN(C(=O)C2CC2)CC1 [Olaparib]; settings: max 10 µM
Outline: as §1

[26] = compound: CS(=O)(=O)CCNCc1ccc(-c2ccc3ncnc(Nc4ccc(OCc5cccc(F)c5)c(Cl)c4)c3c2)o1 [Lapatinib]; settings: max 10 µM
Outline: as §1

[27] = compound: Cn1cnc2c(F)c(Nc3ccc(Br)cc3Cl)c(C(=O)NOCCO)cc21 [Selumetinib]; settings: max 10 µM
Outline: as §1

[28] = compound: C[C@@H]1COCCN1C2=NC(=NC(=C2)C3(CC3)[S@](=N)(=O)C)C4=C5C=CNC5=NC=C4 [AZD6738]; settings: max 10 µM
Outline: as §1

[29] = compound: Cc1nc(-c2cn3c(n2)-c2ccc(-c4cnn(C(C)(C)C(N)=O)c4)cc2OCC3)n(C(C)C)n1 [Taselisib]; settings: max 10 µM
Outline: as §1

[30] = compound: C1CN(CCC1(C(=O)N[C@@H](CCO)C2=CC=C(C=C2)Cl)N)C3=NC=NC4=C3C=CN4 [AZD5363]; settings: max 10 µM
Outline: as §1

[31] = compound: CN(CC[C@H](CSC1=CC=CC=C1)NC2=C(C=C(C=C2)S(=O)(=O)NC(=O)C3=CC=C(C=C3)N4CCC(CC4)[C@H](C5=CC=CC=C5C6=CC=C(C=C6)Cl)O)S(=O)(=O)C(F)(F)F)CCO [AZD4320]; settings: max 1 µM
Outline: as §1

[32] = compound: N#Cc1cnc(Nc2cc(NC[C@H]3CNCCO3)c(C(F)(F)F)cn2)cn1 [SRA737]; settings: max 10 µM
Outline: as §1

[33] = compound: Nc1ccn([C@@H]2O[C@H](CO)[C@@H](O)C2(F)F)c(=O)n1 [Gemcitabine]; settings: max 0.3 µM
Outline: as §1

[34] = compound: COc1cccc2c1C(=O)c1c(O)c3c(c(O)c1C2=O)C[C@@](O)(C(=O)CO)C[C@@H]3O[C@H]1C[C@H](N)[C@H](O)[C@H](C)O1 [Doxorubicin]; settings: max 1 µM
Outline: as §1

[35] = compound: CC1=CN2[C@@H](C1)C=NC3=CC(=C(C=C3C2=O)OC)OCCCCCOC4=C(C=C5C(=C4)N=C[C@@H]6CC(=CN6C5=O)C)OC [SG3199]; settings: max 0.001 µM
Outline: as §1

Cell Line | IC50, cell viability 72 h [1] | IC50, cell viability 72 h [2] | IC50, cell viability 72 h [3] | IC50, cell viability 72 h [4] | IC50, cell viability 72 h [5] | IC50, cell viability 72 h [6] | IC50, cell viability 72 h [7] | IC50, cell viability 72 h [8] | IC50, cell viability 72 h [9] | IC50, cell viability 72 h [10] | IC50, cell viability 72 h [11] | IC50, cell viability 72 h [12] | IC50, cell viability 72 h [13] | IC50, cell viability 72 h [14] | IC50, cell viability 72 h [15] | IC50, cell viability 72 h [16] | IC50, cell viability 72 h [17] | IC50, cell viability 72 h [18] | IC50, cell viability 72 h [19] | IC50, cell viability 72 h [20] | IC50, cell viability 72 h [21] | IC50, cell viability 72 h [22] | IC50, cell viability 72 h [23] | IC50, cell viability 72 h [24] | IC50, cell viability 72 h [25] | IC50, cell viability 72 h [26] | IC50, cell viability 72 h [27] | IC50, cell viability 72 h [28] | IC50, cell viability 72 h [29] | IC50, cell viability 72 h [30] | IC50, cell viability 72 h [31] | IC50, cell viability 72 h [32] | IC50, cell viability 72 h [33] | IC50, cell viability 72 h [34] | IC50, cell viability 72 h [35]
NCI-H28 (Mesothelioma) | > 10000 nM | > 300 nM | > 10000 nM | > 10000 nM | > 10000 nM | > 10000 nM | > 1000 nM | 304 nM | > 3000 nM | > 10000 nM | > 20000 nM | > 1000 nM | > 3000 nM | > 300 nM | > 10000 nM | > 1000 nM | > 1000 nM | > 1000 nM | > 5000 nM | > 10000 nM | 327 nM | > 10000 nM | 825 nM | > 1000 nM | > 10000 nM | > 10000 nM | > 10000 nM | > 10000 nM | > 10000 nM | > 10000 nM | > 1000 nM | > 10000 nM | 140 nM | > 1000 nM | > 1 nM
NCI-H69 (Small Cell Lung Carcinoma) | > 10000 nM | > 300 nM | > 10000 nM | > 10000 nM | > 10000 nM | 1110 nM | > 1000 nM | > 2000 nM | 2370 nM | 5700 nM | > 20000 nM | > 1000 nM | > 3000 nM | 123 nM | 4550 nM | 342 nM | > 1000 nM | > 1000 nM | > 5000 nM | > 10000 nM | > 1000 nM | > 10000 nM | 4.64 nM | > 1000 nM | > 10000 nM | > 10000 nM | > 10000 nM | > 10000 nM | 546 nM | > 10000 nM | 59.5 nM | > 10000 nM | > 300 nM | > 1000 nM | > 1 nM
NCI-H2461 (Mesothelioma) | > 10000 nM | > 300 nM | > 10000 nM | > 10000 nM | > 10000 nM | > 10000 nM | > 1000 nM | > 2000 nM | 630 nM | > 10000 nM | > 20000 nM | > 1000 nM | > 3000 nM | 91.8 nM | > 10000 nM | > 1000 nM | > 1000 nM | > 1000 nM | > 5000 nM | > 10000 nM | 48.2 nM | > 10000 nM | 735 nM | > 1000 nM | > 10000 nM | > 10000 nM | > 10000 nM | 4160 nM | 6270 nM | > 10000 nM | > 1000 nM | > 10000 nM | > 300 nM | 379 nM | > 1 nM
NCI-H2795 (Mesothelioma) | > 10000 nM | > 300 nM | > 10000 nM | > 10000 nM | > 10000 nM | 1300 nM | > 1000 nM | 578 nM | > 3000 nM | 7780 nM | 19600 nM | 38.4 nM | > 3000 nM | 16.9 nM | > 10000 nM | > 1000 nM | > 1000 nM | 974 nM | 658 nM | > 10000 nM | 146 nM | 3820 nM | 85.3 nM | 840 nM | > 10000 nM | > 10000 nM | 3140 nM | 9010 nM | 4730 nM | > 10000 nM | > 1000 nM | > 10000 nM | 25.8 nM | 715 nM | > 1 nM
OC-314 (Ovarian Carcinoma) | > 10000 nM | > 300 nM | > 10000 nM | 7390 nM | > 10000 nM | 6230 nM | > 1000 nM | 205 nM | 671 nM | > 10000 nM | 17800 nM | > 1000 nM | > 3000 nM | 8.72 nM | > 10000 nM | > 1000 nM | > 1000 nM | > 1000 nM | > 5000 nM | > 10000 nM | 39.4 nM | 876 nM | 5.9 nM | 70.9 nM | > 10000 nM | > 10000 nM | > 10000 nM | 2610 nM | 1600 nM | > 10000 nM | > 1000 nM | > 10000 nM | 34.4 nM | 63.9 nM | > 1 nM
PCI-30 (Head and Neck Carcinoma) | > 10000 nM | > 300 nM | > 10000 nM | > 10000 nM | > 10000 nM | > 10000 nM | > 1000 nM | > 2000 nM | > 3000 nM | > 10000 nM | > 20000 nM | > 1000 nM | > 3000 nM | 110 nM | > 10000 nM | > 1000 nM | > 1000 nM | > 1000 nM | > 5000 nM | > 10000 nM | 74 nM | > 10000 nM | > 3000 nM | > 1000 nM | > 10000 nM | > 10000 nM | > 10000 nM | > 10000 nM | > 10000 nM | > 10000 nM | > 1000 nM | > 10000 nM | > 300 nM | > 1000 nM | > 1 nM
